These results are taken from patent publication US20050113292A1 (priority 2003, published 2005).

Like-named read-outs stand apart in the source and are kept apart here.

The test system of experiment [1] is HIV-1 mediated cell-cell fusion (R8 virus). The settings on record: mediated cell-cell fusion (R8 virus).
Another experiment deals with T-tropic (R8) HIV-1. The settings on record: T-tropic (R8).
Another experiment relates to R9 HIV-1 virus. The experiment is classed as cell-based.
The subject of the next experiment is M-tropic (BAL) HIV-1. The settings on record: M-tropic (BAL).
Experiment [2] has as its target gp41 of T-tropic HIV-1 R8 virus (HIV-1 (R8)). Briefly: cell-based or functional assay.

As to `CC[C@H](C)[C@H](NC(=O)CNC(=O)[C@H](Cc1c[nH]c2ccccc12)NC(=O)[C@@H](NC(=O)[C@@H](NC(=O)[C@H](CC(C)C)NC(=O)[C@H](CCC(N)=O)NC(=O)[C@H](CC(C)C)NC(=O)[C@H](CC(C)C)NC(=O)[C@H](Cc1c[nH]cn1)NC(=O)[C@H](CCC(N)=O)NC(=O)[C@H](CCC(N)=O)NC(=O)[C@H](C)NC(=O)[C@H](CCC(=O)O)NC(=O)[C@@H](NC(=O)[C@H](C)NC(=O)[C@H](CCCNC(=N)N)NC(=O)[C@H](CC(C)C)NC(=O)[C@H](CC(C)C)NC(=O)[C@H](CC(N)=O)NC(=O)[C@H](CC(N)=O)NC(=O)[C@H](CCC(N)=O)NC(=O)[C@H](CCC(N)=O)NC(=O)[C@H](CCC(N)=O)NC(=O)[C@@H](NC(=O)[C@@H](NC(=O)CNC(=O)[C@H](CO)NC(=O)[C@@H]1CSC(C(=O)NCCCC[C@H](NC(=O)CCNC(=O)C2N[C@H](C(=O)N[C@@H](CO)C(=O)NCC(=O)N[C@H](C(=O)N[C@H](C(=O)N[C@@H](CCC(N)=O)C(=O)N[C@@H](CCC(N)=O)C(=O)N[C@@H](CCC(N)=O)C(=O)N[C@@H](CC(N)=O)C(=O)N[C@@H](CC(N)=O)C(=O)N[C@@H](CC(C)C)C(=O)N[C@@H](CC(C)C)C(=O)N[C@@H](CCCNC(=N)N)C(=O)N[C@@H](C)C(=O)N[C@H](C(=O)N[C@@H](CCC(=O)O)C(=O)N[C@@H](C)C(=O)N[C@@H](CCC(N)=O)C(=O)N[C@@H](CCC(N)=O)C(=O)N[C@@H](Cc3c[nH]cn3)C(=O)N[C@@H](CC(C)C)C(=O)N[C@@H](CC(C)C)C(=O)N[C@@H](CCC(N)=O)C(=O)N[C@@H](CC(C)C)C(=O)N[C@H](C(=O)N[C@H](C(=O)N[C@@H](Cc3c[nH]c4ccccc34)C(=O)NCC(=O)N[C@H](C(=O)N[C@@H](CCCCN)C(=O)N[C@@H](CCC(N)=O)C(=O)N[C@@H](CC(C)C)C(=O)N[C@@H](CCC(N)=O)C(=O)N[C@@H](C)C(=O)N[C@@H](CCCNC(=N)N)C(=O)N[C@H](C(=O)N[C@@H](CC(C)C)C(=O)O)[C@@H](C)CC)[C@@H](C)CC)C(C)C)[C@@H](C)O)[C@@H](C)CC)C(C)C)[C@@H](C)CC)CS2)C(=O)N[C@@H](CCCCNC(=O)CNC(=O)C2N[C@H](C(=O)N[C@@H](CO)C(=O)NCC(=O)N[C@H](C(=O)N[C@H](C(=O)N[C@@H](CCC(N)=O)C(=O)N[C@@H](CCC(N)=O)C(=O)N[C@@H](CCC(N)=O)C(=O)N[C@@H](CC(N)=O)C(=O)N[C@@H](CC(N)=O)C(=O)N[C@@H](CC(C)C)C(=O)N[C@@H](CC(C)C)C(=O)N[C@@H](CCCNC(=N)N)C(=O)N[C@@H](C)C(=O)N[C@H](C(=O)N[C@@H](CCC(=O)O)C(=O)N[C@@H](C)C(=O)N[C@@H](CCC(N)=O)C(=O)N[C@@H](CCC(N)=O)C(=O)N[C@@H](Cc3c[nH]cn3)C(=O)N[C@@H](CC(C)C)C(=O)N[C@@H](CC(C)C)C(=O)N[C@@H](CCC(N)=O)C(=O)N[C@@H](CC(C)C)C(=O)N[C@H](C(=O)N[C@H](C(=O)N[C@@H](Cc3c[nH]c4ccccc34)C(=O)NCC(=O)N[C@H](C(=O)N[C@@H](CCCCN)C(=O)N[C@@H](CCC(N)=O)C(=O)N[C@@H](CC(C)C)C(=O)N[C@@H](CCC(N)=O)C(=O)N[C@@H](C)C(=O)N[C@@H](CCCNC(=N)N)C(=O)N[C@H](C(=O)N[C@@H](CC(C)C)C(=O)O)[C@@H](C)CC)[C@@H](C)CC)C(C)C)[C@@H](C)O)[C@@H](C)CC)C(C)C)[C@@H](C)CC)CS2)C(=O)N[C@@H](CO)C(=O)N[C@@H](CO)C(=O)N[C@@H](C)C(N)=O)N1)[C@@H](C)CC)C(C)C)[C@@H](C)CC)[C@@H](C)O)C(C)C)C(=O)N[C@@H](CCCCN)C(=O)N[C@@H](CCC(N)=O)C(=O)N[C@@H](CC(C)C)C(=O)N[C@@H](CCC(N)=O)C(=O)N[C@@H](C)C(=O)N[C@@H](CCCNC(=N)N)C(=O)N[C@H](C(=O)N[C@@H](CC(C)C)C(=O)O)[C@@H](C)CC` (stereo partly drawn) [Compound 3α-N36], the figures for the IC50 (in experiment [1]; with T-tropic (R8) HIV-1; in the experiment on M-tropic (BAL) HIV-1) were 0.039 µM, 0.0554 µM and 0.0072 µM, respectively. The “percentage of inhibition of cell infection” value with R9 HIV-1 virus (6 μM) was “around 10%”; in the experiment on R9 HIV-1 virus (200 μM), ~100%.

For “N36 (from UniProt P04578 546-581) (peptide)”, the IC50, HIV-1 mediated cell-cell fusion (syncytium formation), R8 virus in experiment [2] is > 1 µM.

The term IC50 denotes the point on the concentration scale where inhibition reaches its midpoint. Higher therefore signals a need for much substance.
